13 compounds from ChEMBL document CHEMBL1158086, “Phenolic marine natural products as aldose reductase inhibitors” (J Nat Prod, 2006) can be followed below.

pIC50: −log10 of the molar value. A value given as a limit tells only on which side of the number the result lay.

The assay is described as follows: Inhibition of human recombinant ALR2.
As to `O=C1C=C(c2cc(Br)c(O)c(Br)c2)/C(=C/c2cc(Br)c(O)c(Br)c2)O1` [RUBROLIDE A], the pIC50 was 4.70.
Under `O=c1oc(-c2ccc(O)cc2)cn2cc(-c3ccc(O)c(I)c3)c(-c3ccc(O)cc3)c12` [LUKIANOL B] stands 6.22; under `O=C1C=C(c2ccc(O)cc2)/C(=C/c2cc(Br)c(O)c(Br)c2)O1`, < 4.24.
Under `O=C1O/C(=C\c2ccc(O)c(Br)c2)C(c2ccc(O)cc2)=C1Cl` stands 4.34.
The value for `O=C1O/C(=C\c2cc(Br)c(O)c(Br)c2)C(c2ccc(O)c(Br)c2)=C1Cl` was 4.90.
`O=C1NC(=O)[C@@]2(CCOc3ccc(F)cc32)N1` [SORBINIL]: the pIC50 was 5.44.
Under `O=C1O/C(=C\c2ccc(O)c(Br)c2)C(c2ccc(O)c(Br)c2)=C1Cl` stands 4.77; under `O=C(c1ccc(O)cc1)c1cncc(-c2ccc(O)cc2)n1`, 4.38; under `O=C1C=C(c2ccc(O)c(Br)c2)/C(=C/c2cc(Br)c(O)c(Br)c2)O1` [RUBROLIDE J], 4.32.
The value for `O=C(c1ccc(O)cc1)c1nc(-c2ccc(O)cc2)c[nH]1` was 4.67; that for `O=C1O/C(=C\c2cc(Br)c(O)c(Br)c2)C(c2cc(Br)c(O)c(Br)c2)=C1Cl` was 4.73; that for `O=C(c1ccc(O)cc1)c1ncc(-c2ccc(O)cc2)nc1C(=O)c1ccc(O)cc1` was 4.71.
Under `O=C1O/C(=C\c2cc(Br)c(O)c(Br)c2)C(c2ccc(O)cc2)=C1Cl` stands 6.10.

As a reminder, the pIC50 is the IC50 on a negative log10 scale, so that one unit is a factor of ten.
